The text below walks through data of patent publication US8951969B2, “Compositions and methods for treating centrally mediated nausea and vomiting” (Helsinn Healthcare S.A., priority 2009, dated 2015).

The nature of data set [1]: Pharmacokinetics of combined dosage form: randomized, open, 3-way crossover study. In kind it is in vivo. The conditions noted are these: human, plasma palonosetron, oral palonosetron 0.75 mg single dose, fasting, median (range). As for the experimental part:
The effects of palonosetron on the pharmacokinetics (PK) of netupitant and the effects of netupitant on the PK of palonosetron were examined in healthy volunteers. A randomized, open, 3-way crossover study was conducted. Each subject participated in 3 treatment periods, each lasting approximately 12 days (Day −1 to Day 11). The treatment periods were separated by wash-out periods of no less than 14 days (between Day 1 of any 2 consecutive treatment periods). Treatment A: oral netupitant 450 mg. administered as single dose of three 150 mg. capsules. Treatment B: oral palonosetron 0.75 mg. and oral netupitant 450 mg. administered simultaneously as three capsules of 150 mg. netupitant followed by 1 capsule of 0.75 mg. palonosetron. Treatment C: oral palonosetron 0.75 mg. administered as single dose as one 0.75 mg. capsule. Doses were administered under fasting conditions. Subjects fasted over-night for approximately 10 hours. Water, however, was permitted up to 1 hour pre-dose. Food intake was permitted 4 hours post-dose, and water was allowed ad libitum 1 hour post-dose. Doses were administered with the subject in an upright position. The subjects remained in an upright position for 4 hours post-dose. The capsules were swallowed whole with 250 mL of room-temperature tap water. Repeated PK blood sampling (for netupitant and/or palonosetron) was performed. The primary PK variables assessed for netupitant and palonosetron were the maximum plasma concentration observed (Cmax), the area under the plasma concentration versus time curve from time zero to the last quantifiable sampling time point (t) (AUC0-t), and the area under the plasma concentration versus time curve from time zero to infinity (AUC0-inf). The secondary PK variables assessed were the terminal elimination half-life (t1/2, z), and the time at which the maximum plasma concentration was observed (tmax). Results are depicted in below Tables 3 and 4, as well as FIGS. 2 and 3.

Data set [2] relates to highly emetogenic chemotherapy (HEC)-induced nausea and vomiting. As to the kind of experiment: Phase 2 clinical efficacy study, netupitant + palonosetron + dexamethasone. The class given is in vivo, human. Also on record: Total Control, Overall: percent of patients / Total Control, Acute: percent of patients / Total Control, Delayed: percent of patients / Complete Protection, Overall: percent of patients / Complete Protection, Acute: percent of patients / Complete Protection, Delayed: percent of patients: concentration or dose not given beside the values. The conditions noted are these: MFAS, Group 1 (Palo alone) / Group 5 (Aprepitant Regimen). From the text: A phase 2 trial evaluated three single doses of netupitant combined with palonosetron and dexamethasone compared to palonosetron alone and dexamethasone to obtain dose ranging information for netupitant used with oral palonosetron in the CINV patient population.
The objective of the study was to compare the efficacy and safety of three single oral doses of netupitant combined with oral palonosetron and given with dexamethasone, versus oral palonosetron-alone given with dexamethasone (without netupitant) for the prevention of highly emetogenic chemotherapy (HEC)-induced nausea and vomiting. The FDA-approved oral aprepitant regimen given with IV ondansetron and dexamethasone was included in the study as an active comparator for exploratory purposes. The FDA-approved oral palonosetron 0.5 mg. dose was used in each applicable treatment group in this study.
This was a multicenter, randomized, double-blind, double-dummy, parallel group, stratified study. Eligible patients were randomized (stratified by gender) to one of the following treatment groups: • Group 1—0.5 mg. oral palonosetron on Day 1 (with an oral dexamethasone standard regimen: 20 mg. on Day 1 and 8 mg. BID from Day 2 through Day 4) • Group 2—100 mg. oral netupitant plus 0.5 mg. oral palonosetron on Day 1 (with an oral dexamethasone adjusted regimen*: 12 mg. on Day 1 and 8 mg. daily from Day 2 through Day 4) • Group 3—200 mg. oral netupitant plus 0.5 mg. oral palonosetron on Day 1 (with an oral dexamethasone adjusted regimen*: 12 mg. on Day 1 and 8 mg. daily from Day 2 to Day 4) • Group 4—300 mg. oral netupitant plus 0.5 mg. oral palonosetron on Day 1 (with dexamethasone adjusted regimen*: 12 mg. on Day 1 and 8 mg. daily from Day 2 to Day 4) • Group 5—125 mg. oral aprepitant plus IV ondansetron 32 mg. (both on Day 1) then 80 mg. oral aprepitant on Day 2 and Day 3, (all with an oral dexamethasone adjusted regimen: 12 mg. on Day 1 and 8 mg. daily from Day 2 through Day 4)
The primary efficacy endpoint was the complete response rate (defined as no emetic episodes, no rescue medication) within 120 hours after the start of the highly emetogenic chemotherapy administration. Secondary efficacy endpoints were: • Complete response for the 0-24 hour interval (acute phase); and for the 25-120 hour interval (delayed phase); • Complete protection (defined as no emesis, no rescue therapy, no significant nausea); Total control (defined as no emesis, no rescue therapy and no nausea); No nausea (maximum VAS<5 mm); No significant nausea (maximum VAS<25 mm); No rescue medication; No emesis. These endpoints were evaluated for the 0-120 hour interval (overall), acute and delayed phase. • Time to first emetic episode, Time to first rescue medication, Time to treatment failure (based on time to the first emetic episode or time to the first rescue medication, whichever occurs first); • Severity of nausea for the overall, acute and delayed phase; ● Patient global satisfaction with anti-emetic therapy by means of VAS for each 24 hour interval.

Data set [3] in a line: Netupitant + dexamethasone drug interaction study. In kind it is in vivo, human. Here is the method:
The effect of netupitant on orally administered dexamethasone pharmacokinetics was evaluated in this study. This was a randomized, open, 3-period crossover study utilizing an incomplete Latin Square design where subjects were given dexamethasone alone, or oral Netupitant 100 mg., 300 mg. or 450 mg. each given with dexamethasone. Netupitant was given orally on Day 1 only. The dexamethasone regimen for each treatment was 20 mg. orally Day 1, followed by 8 mg. orally every 12 hours from Day 2 through Day 4. Nineteen subjects (12 male and 7 female) completed the study (i.e., all 3 treatment periods).

Where [4] appears, read: co-administration of 100 mg netupitant (oral, Day 1) vs dexamethasone alone.
The mark [5] stands for this setting: co-administration of 300 mg netupitant (oral, Day 1) vs dexamethasone alone.
[6] abbreviates: co-administration of 450 mg netupitant (oral, Day 1) vs dexamethasone alone.

Usually Tmax stands for the time at which the peak concentration occurs. On to `Cl.O=C1c2cccc3c2[C@H](CCC3)CN1[C@@H]1CN2CCC1CC2` [Palonosetron, (3aS)-2-[(S)-1-Azabicyclo[2.2.2]oct-3-yl]-2,3,3a,4,5,6-hexahydro-1-oxo-1Hberiz[de]isoquinoline hydrochloride], for which, in data set [1] (read-out: Palonosetron t1/2, z (converted)), the half-life is 2080 min. Further, the Tmax in data set [1] (read-out: Palonosetron tmax) turned out to be 5.02 h. In data set [2] (0-24 h), the “Complete Protection, Acute: percent of patients” value worked out at 87.5%; the “No Emesis, Acute: percent of patients” value amounted to 89.7%; the “No Rescue, Acute: percent of patients” value was 97.8%; the “Total Control, Acute: percent of patients” value was found to be 71.3%. Besides, in data set [2] (0-120 h), the “No Emesis, Overall: percent of patients” value was determined as 76.5% and the “No Rescue, Overall: percent of patients” value amounted to 95.6%. Besides, in data set [2] (25-120 h), the “Complete Protection, Delayed: percent of patients” value came to 73.5%; the “No Emesis, Delayed: percent of patients” value is listed as 80.1%; the “No Rescue, Delayed: percent of patients” value is listed as 97.1%; the “Total Control, Delayed: percent of patients” value is 52.2%. Also, in data set [2] (HEC (cisplatin) patients), the “CR, Acute Phase, −24 h: Percent of Patients” value is 89.7%; the “CR, Delayed Phase, 25-120 h: Percent of Patients” value came to 80.1%; the “CR, Overall Phase, 0-120 h: Percent of Patients” value is recorded as 76.5%. Besides, the “No Nausea, Acute: percent of patients” value in data set [2] (maximum VAS<5 mm, 0-24 h) was 75.0%. Moreover, the “No Nausea, Overall: percent of patients” value in data set [2] (maximum VAS<5 mm, 0-120 h) is recorded as 50.7%. In addition, the “No Nausea, Delayed: percent of patients” value in data set [2] (maximum VAS<5 mm, 25-120 h) is on record as 53.7%. Further, the “No Significant Nauea, Acute: percent of patients” value in data set [2] (maximum VAS<25 mm, 0-24 h) came out at 93.4%. The “No Significant Nauea, Overall: percent of patients” value in data set [2] (maximum VAS<25 mm, 0-120 h) is on record as 79.4%. The “No Significant Nauea, Delayed: percent of patients” value in data set [2] (maximum VAS<25 mm, 25-120 h) was determined as 80.9%. Besides, the “Total Control, Overall: percent of patients” value in data set [2] (no emesis, no rescue therapy and no nausea, 0-120 h) turned out to be 50.0%. In addition, the “Complete Protection, Overall: percent of patients” value in data set [2] (no emesis, no rescue therapy, no significant nausea, 0-120 h) is on record as 69.9%.
Consider `C[C@@H]1C[C@H]2[C@@H]3CCC4=CC(=O)C=C[C@]4(C)[C@@]3(F)[C@@H](O)C[C@]2(C)[C@@]1(O)C(=O)CO` [dexamethasone], for which the entries for the “Dexamethasone Cmin on Days 2-4, fold increase” value in data set [3] (co-administration of 100 mg netupitant), in data set [3] (co-administration of 300 mg netupitant) and in data set [3] (co-administration of 450 mg netupitant) were “approximately 2.8 fold”, approximately 4.3 fold and approximately 4.6 fold, respectively. Besides, the “AUC0-24 (Day 1) of dexamethasone, fold increase” value in data set [3] (setting [4]) came out at 1.5 fold; in data set [3] (setting [5]) it was 1.7 fold; in data set [3] (setting [6]), 1.8 fold. In addition, the figures for the “AUC24-36 (Day 2) of dexamethasone, fold increase” value in data set [3] (setting [4]), in data set [3] (setting [5]) and in data set [3] (setting [6]) were 2.1 fold, 2.4 fold and 2.6 fold, respectively. The “AUC84-108 and AUC84-inf (Day 4) of dexamethasone, fold increase” value is 1.7 fold in data set [3] (setting [4]), 2.4 fold in data set [3] (setting [5]) and 2.7 fold in data set [3] (setting [6]). The “Dexamethasone Cmax on Day 1, fold increase” value in data set [3] (co-administration with 100 mg netupitant) was 1.1 fold; in data set [3] (co-administration with 300 mg netupitant), 1.1 fold; in data set [3] (co-administration with 450 mg netupitant), 1.2 fold. For the same molecule, the “Dexamethasone Cmax on Day 2 and Day 4, fold increase” value in data set [3] (subjects administered netupitant (100, 300 or 450 mg)) is given as “approximately 1.7 fold”.
